The source of these data is patent publication US20240307415A1, “STEROID COMPOUND, AND PHARMACEUTICAL COMPOSITION THEREOF AND USE THEREOF” (JIANGSU SIMCERE PHARMACEUTICAL CO., LTD., priority 2021, published 2024).

Assay [1] addresses Glucocorticoid Receptor GR (Homo sapiens (Human), UniProt P04150). In words: Binding activity to glucocorticoid receptor GR (Polarscreen fluorescence polarization kit). The conditions noted are these: GR full length, 2 h. On the procedure:
The binding activity of the compound to GR was determined using the Polarscreen Glucocorticoid Receptor Assay Kit, Red (brand: Thermo, Cat. No: A15898). […] The highest concentration was 100 μM, 8 concentrations in total. […] With the log value of the final concentration of the compound as the X axis and the mP value as the Y axis, data was input into the processing software Graphpad Prism 9, and the EC50 value was calculated by four-parameter fitting
(Polarisation of emitted light reports the rotation of a fluorescent probe.)

For the next assay, the system named is K562-GRE reporter gene. In words: K562-GRE reporter gene activity. It counts as cell-based. The note with it: 24 h, read-out: K562-GRE Reporter EC50. The method, then:
To generate the parental K562-GRE cell line, K562 cells were seeded at 5×10^5 cells/well onto a 6-well plate (brand: Costar, Cat. No: 3516) containing 2 mL of complete medium (RPM1640, 10% FBS, penicillin-streptomycin) and cultured at 37° C. with 5% CO2 for 24 h. The next day, 3 μg of pNL2.2[NLucP/MMTV/Hygro-NANO] (Promega) and 3 μL of PLUS reagent (brand: Invitrogen, Cat. No: 11514-015) were diluted in 150 μL of Opti-MEM (brand: Gibco, Cat. No: 11058021) and incubated at room temperature for 5 min. The pNL2.2[NLucP/MMTV/Hygro-NANO] vector contains MMTV LTR (mouse mammary tumor virus long terminal repeat), which drives transcription of the luciferase reporter gene NanoLuc in response to activation of several nuclear receptors (e.g. glucocorticoid receptor and androgen receptor). After incubation, the diluted DNA solution was mixed with Lipofectamine LTX solution (brand: Invitrogen, Cat. No: 15338-100) (6 μL of Lipofectamine LTX+144 μL of Opti-MEM) in a 1:1 ratio, pre-incubated, and incubated at room temperature for 15 min to form a DNA-Lipofectamine LTX complex. After incubation, 300 μL of the DNA-Lipofectamine complex was added directly to the cell wells. The K562 cells were transfected at 37° C. with 5% CO2 for 24 h. After transfection, the cells were washed with 3 mL of PBS and selectively grown for two weeks with complete growth medium containing 125 μg/mL hygromycin B (brand: Invitrogen, Cat. No: 10687010). “K562-GRE (pNL2.2[NLucP/MMTV/Hygro-NANO])” cells were generated.
After mixing, the cells were cultured in an incubator at 37° C. for 24 h. After 24 h of incubation, an equal volume of 100 μL of Nano-Glo luciferase assay system (brand: Promega, Cat. No: N1120) was added to the cells, the mixture was reacted in a shaker at […] for 10 min, and the chemiluminescence values were detected using the PHERAstar instrument. The antibody binding curves were plotted using the logarithmic value of the antibody concentration as the abscissa and the corresponding chemiluminescence reading as the ordinate, and the EC50 value was calculated by four-parameter fitting (GraphPad Prism9).
Background: A reporter such as luciferase makes a cellular process visible.

For a further assay, the system named is CHS mouse model. In words: Efficacy test in CHS mouse model (FITC sensitization, right ear thickness). It counts as in vivo, C57BL/6N mice. The note with it: 3 μg/mouse. The method, then:
Construction of CHS mouse model: 6- to 8-week-old female C57BL/6N mice (Beijing Vital River Laboratory Animal Technology Co., Ltd.) were selected, and all mice were shaved off abdominal hair using a small animal hair clipper. 400 μL of the sensitizer was pipetted with a micropipette and applied evenly to the abdomen of the mice for epidermal sensitization. After application, the mice were held for 3-5 s and the solvent was allowed to evaporate from the skin as clean as possible. The specific preparation method for the sensitizer was: 0.5 g of FITC (fluorescein isothiocyanate; sigma-Aldrich) powder was weighed and fully dissolved in a solvent of 50 mL of acetone (SinoPharm reagent) and 50 mL of DBP (dibutyl phthalate; sigma-Aldrich) in equal proportion to give the sensitizer with the FITC content of 0.5%. On the 6th day after sensitization, the thickness of the right ear of the mice was measured with a dial thickness gauge as a baseline value, then a freshly prepared sensitizer was pipetted with a micropipette and applied evenly inside and outside of the right ear of the mice respectively for epidermal stimulation, and 10 μL of the sensitizer was applied on each side. 24 h after stimulation, the thickness of the right ear of the mice was measured again with a dial thickness gauge to obtain the thickness change of the right ear of the mice, A thickness of right ear=(thickness of right ear 24 h after stimulation)−(baseline value of thickness of right ear).
Therapeutic regimen for CHS model mouse: mice were divided into a blank group, a negative control group, a positive control group, and an experimental group. […] The drug was administered by one-time intraperitoneal injection 1 h before the right ear epidermal stimulation.

Sequence of Glucocorticoid Receptor GR (P04150 whole entry): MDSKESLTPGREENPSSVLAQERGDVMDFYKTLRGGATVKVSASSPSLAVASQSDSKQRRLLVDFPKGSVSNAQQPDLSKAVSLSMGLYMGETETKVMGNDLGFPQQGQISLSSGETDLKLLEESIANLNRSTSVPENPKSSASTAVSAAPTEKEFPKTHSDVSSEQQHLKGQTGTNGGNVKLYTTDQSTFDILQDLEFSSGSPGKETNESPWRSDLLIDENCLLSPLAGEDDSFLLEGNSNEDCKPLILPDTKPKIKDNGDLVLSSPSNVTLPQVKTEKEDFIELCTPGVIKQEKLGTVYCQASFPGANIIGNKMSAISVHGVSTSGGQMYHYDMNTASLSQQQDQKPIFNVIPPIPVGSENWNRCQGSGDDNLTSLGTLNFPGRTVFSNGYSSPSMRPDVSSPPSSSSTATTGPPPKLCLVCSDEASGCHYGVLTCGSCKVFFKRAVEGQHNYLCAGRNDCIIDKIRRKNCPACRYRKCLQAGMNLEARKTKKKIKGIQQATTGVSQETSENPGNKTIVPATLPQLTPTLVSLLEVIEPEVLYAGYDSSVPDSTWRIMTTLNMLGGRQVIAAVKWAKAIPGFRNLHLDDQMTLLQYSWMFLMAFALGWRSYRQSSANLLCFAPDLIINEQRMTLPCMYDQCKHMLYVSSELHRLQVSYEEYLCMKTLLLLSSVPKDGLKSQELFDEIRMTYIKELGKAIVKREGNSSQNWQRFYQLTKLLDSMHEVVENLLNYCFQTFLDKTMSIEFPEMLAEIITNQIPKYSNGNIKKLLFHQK

For the compound `C[C@]12C=CC(=O)C=C1CC[C@@H]1[C@@H]2[C@@H](O)C[C@@]2(C)[C@H]1C[C@H]1O[C@@H](c3ccc(Cc4ccc(N)c5c4CCO5)cc3)O[C@]12C(=O)CO` [Compound 001, (6aR,6bS,7S,8aS,8bS,10R,11aR,12aS,12bS)-10-(4-((7-amino-2,3-dihydrobenzofuran-4-yl)methyl)phenyl)-7-hydroxy-8b-(2-hydroxyacetyl)-6a,8a-dimethyl-6a,6b,7,8,8a,8b,11a,12,12a,12b-decahydro-1H-naphtho[2′,1′:4,5]indeno[1,2-d][1,3]dioxolan-4(2H)-one], the results for the EC50 (in assay [1]; in the assay with K562-GRE reporter gene) were 13 nM and 3.5 nM, respectively. Besides, the “thickness of the right ear in CHS mice compared to the negative control group” value in the assay on CHS mouse model (one-time intraperitoneal injection 1 h before right ear stimulation, measured 24 h after stimulation) is on record as “significant decrease”. Besides, the “efficacy compared with positive reference compound a at the same dose” value with CHS mouse model (one-time intraperitoneal injection, CHS mice, right ear thickness) is recorded as “superior in efficacy to the positive reference compound a”.
